Measurements from the Kinase Knowledgebase extract (Sharma et al. 2016).

Target: ROCK2 (human) (UniProt O75116)
Assay: Assessment of ROCK2 Kinase Activity

ROCK2 (human), sequence (O75116 whole entry, looked up): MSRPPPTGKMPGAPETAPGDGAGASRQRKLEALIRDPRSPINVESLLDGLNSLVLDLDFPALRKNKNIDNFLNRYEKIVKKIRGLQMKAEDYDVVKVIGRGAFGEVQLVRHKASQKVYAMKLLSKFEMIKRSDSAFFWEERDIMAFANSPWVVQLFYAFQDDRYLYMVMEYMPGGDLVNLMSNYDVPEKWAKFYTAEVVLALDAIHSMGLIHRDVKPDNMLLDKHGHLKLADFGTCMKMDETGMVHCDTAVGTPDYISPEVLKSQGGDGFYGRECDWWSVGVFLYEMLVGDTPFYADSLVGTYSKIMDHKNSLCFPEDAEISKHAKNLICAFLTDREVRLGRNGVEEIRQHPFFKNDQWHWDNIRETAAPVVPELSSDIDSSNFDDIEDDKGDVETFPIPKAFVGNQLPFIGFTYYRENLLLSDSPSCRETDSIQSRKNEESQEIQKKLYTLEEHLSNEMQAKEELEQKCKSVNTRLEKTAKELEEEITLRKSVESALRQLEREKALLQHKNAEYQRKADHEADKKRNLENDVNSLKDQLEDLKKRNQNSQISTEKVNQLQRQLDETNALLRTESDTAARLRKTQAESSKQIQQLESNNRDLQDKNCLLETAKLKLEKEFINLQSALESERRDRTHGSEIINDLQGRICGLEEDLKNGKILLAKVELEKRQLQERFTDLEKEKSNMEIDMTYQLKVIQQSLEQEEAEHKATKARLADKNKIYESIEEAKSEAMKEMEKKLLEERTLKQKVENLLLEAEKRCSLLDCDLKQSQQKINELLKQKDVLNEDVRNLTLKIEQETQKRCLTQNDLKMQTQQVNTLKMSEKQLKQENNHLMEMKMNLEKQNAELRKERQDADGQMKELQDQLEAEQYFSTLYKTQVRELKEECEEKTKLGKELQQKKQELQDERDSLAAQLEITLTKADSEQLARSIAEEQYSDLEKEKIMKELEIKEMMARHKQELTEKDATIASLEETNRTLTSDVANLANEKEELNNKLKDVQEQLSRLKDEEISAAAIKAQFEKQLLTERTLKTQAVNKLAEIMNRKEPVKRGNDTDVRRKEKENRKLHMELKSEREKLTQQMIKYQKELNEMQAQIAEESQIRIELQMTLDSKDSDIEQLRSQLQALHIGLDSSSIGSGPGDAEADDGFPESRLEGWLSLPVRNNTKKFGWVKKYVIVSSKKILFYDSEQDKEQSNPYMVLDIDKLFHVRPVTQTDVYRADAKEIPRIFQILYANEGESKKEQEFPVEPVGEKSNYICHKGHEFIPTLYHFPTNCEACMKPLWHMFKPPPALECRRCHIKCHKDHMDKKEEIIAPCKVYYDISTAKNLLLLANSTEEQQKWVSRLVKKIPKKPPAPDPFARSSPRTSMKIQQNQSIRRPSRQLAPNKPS

IC50, ≤ 1 µM:
N[C@H]1CC[C@@H](Oc2ccc3cnccc3c2Cl)CC1
CC(C)N[C@H]1CC[C@@H](Oc2ccc3cnccc3c2)CC1
Clc1c(OC2CCC(NC3CCCCC3)CC2)ccc2cnccc12 (stereo not given)
N[C@H]1CC[C@H](Oc2c(Cl)cc3cnccc3c2Cl)CC1
N[C@H]1CC[C@@H](Oc2ccc3cncc(Cl)c3c2)CC1
N[C@H]1CC[C@@H](Oc2ccc3cnccc3c2-c2ccsc2)CC1
C=Cc1c(O[C@H]2CC[C@@H](N)CC2)ccc2cnccc12
COc1cc(Nc2cc3cc(O[C@H]4CC[C@@H](N)CC4)ccc3cn2)cc(OC)c1OC
c1cncc(CN[C@H]2CC[C@@H](Oc3ccc4cnccc4c3)CC2)c1
CC(=O)Nc1ccc(CN[C@H]2CC[C@@H](Oc3ccc4cnccc4c3)CC2)cc1
CC1(c2ccc(CNC3CCC(Oc4ccc5cnccc5c4)CC3)cc2)NC(=O)NC1=O (stereo not given)
CN(C)C=NS(=O)(=O)c1cc(CN[C@H]2CC[C@@H](Oc3ccc4cnccc4c3Cl)CC2)ccc1Cl
N[C@H]1CC[C@@H](Oc2ccc3cnccc3c2Br)CC1
c1cc2cc(O[C@H]3CC[C@@H](NC4CC4)CC3)ccc2cn1
CCc1cncc2ccc(O[C@H]3CC[C@@H](N)CC3)cc12
